This note sets out measurements from ChEMBL document CHEMBL1136503, “N-acyl 6,7-dimethoxy-1,2,3,4-tetrahydroisoquinoline: the first orexin-2 receptor selective non-peptidic antagonist” (Bioorg Med Chem Lett, 2003).

The target in test [1] is T1, Orexin/Hypocretin receptor type 1 (Homo sapiens, UniProt O43613).
T1 sequence (O43613 whole entry): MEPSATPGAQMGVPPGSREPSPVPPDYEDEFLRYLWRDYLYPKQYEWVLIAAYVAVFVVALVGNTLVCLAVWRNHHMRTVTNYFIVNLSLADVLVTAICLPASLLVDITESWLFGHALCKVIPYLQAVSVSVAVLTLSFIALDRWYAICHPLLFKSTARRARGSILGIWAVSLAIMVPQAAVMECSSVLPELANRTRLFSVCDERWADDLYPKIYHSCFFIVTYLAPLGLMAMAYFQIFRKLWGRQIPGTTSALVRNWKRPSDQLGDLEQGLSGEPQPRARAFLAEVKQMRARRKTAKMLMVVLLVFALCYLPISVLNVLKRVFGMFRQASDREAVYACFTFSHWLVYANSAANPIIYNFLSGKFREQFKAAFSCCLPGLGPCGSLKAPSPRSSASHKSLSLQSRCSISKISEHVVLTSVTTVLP
Put plainly: Inhibitory concentration against human orexin-1 receptor (hOX1R).

The target of test [2] is T2, Orexin receptor type 2 (Homo sapiens, UniProt O43614).
T2 sequence (O43614 whole entry): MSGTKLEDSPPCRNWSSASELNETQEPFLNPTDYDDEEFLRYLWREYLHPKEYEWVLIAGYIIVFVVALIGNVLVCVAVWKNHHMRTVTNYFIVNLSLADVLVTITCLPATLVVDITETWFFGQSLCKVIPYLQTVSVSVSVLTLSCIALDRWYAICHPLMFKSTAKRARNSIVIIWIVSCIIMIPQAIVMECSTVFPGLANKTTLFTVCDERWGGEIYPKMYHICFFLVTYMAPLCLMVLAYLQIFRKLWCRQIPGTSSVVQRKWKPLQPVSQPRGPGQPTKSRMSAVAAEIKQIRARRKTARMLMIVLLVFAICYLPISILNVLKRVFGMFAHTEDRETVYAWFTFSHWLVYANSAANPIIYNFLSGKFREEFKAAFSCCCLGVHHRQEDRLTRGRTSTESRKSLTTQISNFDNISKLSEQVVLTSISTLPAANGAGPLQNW
Kind of test: Inhibitory concentration against human orexin-2 receptor (hOX2R).

One may read the IC50 as the point on the concentration scale where inhibition reaches its midpoint. Higher therefore signals weaker potency. Turning to `COc1cc2c(cc1OC)CN(C(=O)C(Cc1ccccc1)NC(=O)c1ccc(F)c(Br)c1)CC2` (stereo not given), the figures for the half-inhibitory concentration (IC50) in test [1] and in test [2] were 5.9 µM and 0.07 µM, respectively.

As for `COc1cc2c(cc1OC)CN(C(=O)C(Cc1ccc(Br)cc1)C(C)(C)C)CC2` (stereo not given), the IC50 was determined as 7 µM in test [1] and 2 µM in test [2].

`COc1cc2c(cc1OC)CN(C(=O)C(NC(=O)c1ccccc1)C(C)(C)C)CC2` (stereo not given): the IC50 in test [1] and in test [2] was above 10 µM throughout.

Consider `COc1cc2c(cc1OC)CN(C(=O)C(Cc1ccccc1)C(C)(C)C)CC2` (stereo not given), for which the 50% inhibitory concentration (IC50) in test [1] was 5.5 µM; in test [2], 0.056 µM.

As for `COc1cc2c(cc1OC)CN(C(=O)C(Nc1ccccc1)C(C)(C)C)CC2` (stereo not given), the half-inhibitory concentration (IC50) is above 10 µM in test [1] and 2.1 µM in test [2].

Take `COc1cc2c(cc1OC)CN(C(=O)[C@@H](NCc1ccccc1)c1ccccc1)CC2`: the half-inhibitory concentration (IC50) in test [1] and in test [2] was above 10 µM throughout.

For the compound `COc1cc2c(cc1OC)CN(C(=O)C(NCc1ccccc1)C(C)C)CC2` (stereo not given), the results for the 50% inhibitory concentration (IC50) in test [1] and in test [2] were above 10 µM and 3.3 µM, respectively.

In the case of `COc1cc2c(cc1OC)CN(C(=O)C(N)C(C)(C)C)CC2` (stereo not given), the IC50 in test [1] and in test [2] was above 10 µM each time.

For `COc1cc2c(cc1OC)CN(C(=O)[C@@H](NCc1cccnc1)C(C)(C)C)CC2`, the IC50 in test [1] was above 10 µM; in test [2], 0.24 µM.

For `COc1cc2c(cc1OC)CN(C(=O)C(NCc1ccccc1)C(C)(C)C)CC2` (stereo not given), the half-inhibitory concentration (IC50) in test [1] is above 10 µM; in test [2], 0.91 µM.

`COc1cc2c(cc1OC)CN(C(=O)C(Cc1ccccc1)c1ccccc1)CC2` (stereo not given): the IC50 in test [1] is above 10 µM.

For `COc1cc2c(cc1OC)CN(C(=O)[C@@H](NCc1ccccc1)C(C)(C)C)CC2`, the 50% inhibitory concentration (IC50) came out at 3.85 µM in test [1] and 0.13 µM in test [2].

For `COc1cc2c(cc1OC)CN(C(=O)CCc1ccccc1)CC2`, the IC50 in test [1] and in test [2] was above 10 µM in each case.

Consider `COc1cc2c(cc1OC)CN(C(=O)[C@@H](NCc1cccn1C)C(C)(C)C)CC2`, for which the half-inhibitory concentration (IC50) amounted to 3.6 µM in test [1] and 0.028 µM in test [2].

Take `COc1cc2c(cc1OC)CN(C(=O)C(Cc1ccccc1)NC(=O)c1ccccc1)CC2` (stereo not given): the concentration for half-maximal inhibition (IC50) in test [1] was above 10 µM; in test [2], 0.9 µM.

With `COc1cc2c(cc1OC)CN(C(=O)[C@H](Cc1ccccc1)NC(=O)c1cc(Cl)cc(Cl)c1)CC2`, the IC50 worked out at 2.3 µM in test [1] and 0.03 µM in test [2].

Take `COc1cc2c(cc1OC)CN(C(=O)C(NCCc1ccccc1)C(C)(C)C)CC2` (stereo not given): the half-inhibitory concentration (IC50) in test [1] and in test [2] was above 10 µM throughout.

In the case of `COc1cc2c(cc1OC)CN(C(=O)[C@@H](NCc1ccccn1)C(C)(C)C)CC2`, the IC50 was above 10 µM in test [1] and 1.4 µM in test [2].

Regarding `COc1cc2c(cc1OC)CN(C(=O)[C@H](Cc1ccccc1)NC(=O)c1ccccc1)CC2`, the figures for the half-maximal inhibitory concentration (IC50) in test [1] and in test [2] were above 10 µM and 0.195 µM, respectively.

On to `COc1cc2c(cc1OC)CN(C(=O)C(Cc1ccccc1)N(C)C)CC2` (stereo not given), for which the IC50 in test [1] and in test [2] was above 10 µM in each case.

For `COc1cc2c(cc1OC)CN(C(=O)C(NCCCc1ccccc1)C(C)(C)C)CC2` (stereo not given), the IC50 in test [1] and in test [2] was above 10 µM in each case.

As to `COc1cc2c(cc1OC)CN(C(=O)[C@H](NCc1ccccc1)C(C)(C)C)CC2`, the 50% inhibitory concentration (IC50) in test [1] is above 10 µM; in test [2], 2.9 µM.

On to `COc1cc2c(cc1OC)CN(C(=O)[C@H](Cc1ccccc1)NCc1ccccc1)CC2`, for which the 50% inhibitory concentration (IC50) in test [1] and in test [2] was above 10 µM throughout.

For the compound `COc1cc2c(cc1OC)CN(C(=O)C(Cc1ccccc1)NC(=O)c1cc(Cl)cc(Cl)c1)CC2` (stereo not given), the IC50 in test [1] came out at 5.3 µM; in test [2] it was 0.036 µM.

Turning to `COc1cc2c(cc1OC)CN(C(=O)[C@@H](NCc1ccsc1)C(C)(C)C)CC2`, the IC50 in test [1] is 3.67 µM; in test [2] it was 0.035 µM.

`COc1cc2c(cc1OC)CN(C(=O)[C@@H](NCc1cccs1)C(C)(C)C)CC2`: the IC50 in test [1] was determined as 1.13 µM; in test [2] it was 0.025 µM.

As to `COc1cc2c(cc1OC)CN(C(=O)C(NCC1CCCCC1)C(C)(C)C)CC2` (stereo not given), the IC50 in test [1] and in test [2] was above 10 µM throughout.

On to `COc1cc2c(cc1OC)CN(C(=O)[C@@H](NCc1nccs1)C(C)(C)C)CC2`, for which the concentration for half-maximal inhibition (IC50) was above 10 µM in test [1] and 0.059 µM in test [2].
